Laboratory results: ChEMBL document CHEMBL1201862, “PubChem BioAssay data set” (2004)
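Following 48 hours of exposure in 96-well plates, responses at five concentrations were used to interpolate endpoints linearly. Abbreviation: GI50, concentration required for 50% inhibition of growth.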 Active and inactive are the calls of the source. Rule as the data show it: active = GI50 up to about 1.1 µM and inactive = higher.

Experiments:
Experiment in all cases: NCI-60 cell line screen, 48 h
PC-3 = test system: PC-3
EKVX = test system: EKVX
UACC-62 = test system: UACC-62
DU-145 = test system: DU-145
TK-10 = test system: TK-10
HCT-116 = test system: HCT-116
NCI-H522 = test system: NCI-H522
U-251 = test system: U-251
HOP-62 = test system: HOP-62
NCI-H460 = test system: NCI-H460
CAKI-1 = test system: CAKI-1
UACC-257 = test system: UACC-257
OVCAR-4 = test system: OVCAR-4
HCC 2998 = test system: HCC 2998
OVCAR-5 = test system: OVCAR-5
MDA-MB-435 = test system: MDA-MB-435
M14 = test system: M14
Malme-3M = test system: Malme-3M
786-0 = test system: 786-0
RXF 393 = test system: RXF 393

SMILES | GI50 (PC-3) | GI50 (EKVX) | GI50 (UACC-62) | GI50 (DU-145) | GI50 (TK-10) | GI50 (HCT-116) | GI50 (NCI-H522) | GI50 (U-251) | GI50 (HOP-62) | GI50 (NCI-H460) | GI50 (CAKI-1) | GI50 (UACC-257) | GI50 (OVCAR-4) | GI50 (HCC 2998) | GI50 (OVCAR-5) | GI50 (MDA-MB-435) | GI50 (M14) | GI50 (Malme-3M) | GI50 (786-0) | GI50 (RXF 393)
O=C(Nc1ccc([N+](=O)[O-])cc1)Nn1cnnc1 | 42.1 µM (inactive) | > 100 µM (inactive) | 46.3 µM (inactive) | 64 µM (inactive) | 42.5 µM (inactive) | 74.5 µM (inactive) | 49.8 µM (inactive) | 27.5 µM (inactive) | 66.2 µM (inactive) | 37.6 µM (inactive) | > 100 µM (inactive) | 94 µM (inactive) | 14.3 µM (inactive) | 55.1 µM (inactive) | > 100 µM (inactive) | 44.9 µM (inactive) | > 100 µM (inactive) | 15.9 µM (inactive) | – | –
CCN(CC)C(=S)SS(=O)(=O)c1ccc(C)cc1 | – | > 100 µM (inactive) | 16.2 µM (inactive) | 42.6 µM (inactive) | > 100 µM (inactive) | – | < 0.01 µM (active) | 23.3 µM (inactive) | 23.2 µM (inactive) | 27.2 µM (inactive) | 17.7 µM (inactive) | 19.2 µM (inactive) | 43.2 µM (inactive) | 36.9 µM (inactive) | > 100 µM (inactive) | 31.5 µM (inactive) | 13.9 µM (inactive) | 20.4 µM (inactive) | 20.3 µM (inactive) | 16.8 µM (inactive)
Cc1ccc2c(c1C)CC1(Cc3c(C)ccc(C)c3C1=O)C2=O (stereo not given) | – | > 100 µM (inactive) | > 100 µM (inactive) | > 100 µM (inactive) | > 100 µM (inactive) | > 100 µM (inactive) | > 100 µM (inactive) | > 100 µM (inactive) | – | > 100 µM (inactive) | > 100 µM (inactive) | > 100 µM (inactive) | > 100 µM (inactive) | > 100 µM (inactive) | > 100 µM (inactive) | > 100 µM (inactive) | > 100 µM (inactive) | > 100 µM (inactive) | > 100 µM (inactive) | > 100 µM (inactive)
COc1cc(/C=C2/C(=O)N/C(=N\C(C)=O)N2C)ccc1OC(C)=O | > 100 µM (inactive) | > 100 µM (inactive) | > 100 µM (inactive) | > 100 µM (inactive) | 47.9 µM (inactive) | > 100 µM (inactive) | – | > 100 µM (inactive) | > 100 µM (inactive) | > 100 µM (inactive) | > 100 µM (inactive) | > 100 µM (inactive) | > 100 µM (inactive) | > 100 µM (inactive) | > 100 µM (inactive) | > 100 µM (inactive) | > 100 µM (inactive) | – | > 100 µM (inactive) | –
C=CCNC1=C2C[C@@H](C)C[C@@H](OC)[C@H](OC(=O)CCCCN)[C@H](C)/C=C(\C)[C@@H](OC(N)=O)[C@H](OC)/C=C\C=C(/C)C(=O)NC(=CC1=O)C2=O | – | 13.7 µM (inactive) | 14.6 µM (inactive) | 6.47 µM (inactive) | 15 µM (inactive) | 13.8 µM (inactive) | 13.6 µM (inactive) | 10.9 µM (inactive) | 5.83 µM (inactive) | 11.6 µM (inactive) | 18.5 µM (inactive) | 6.17 µM (inactive) | 15.8 µM (inactive) | 4.27 µM (inactive) | 19 µM (inactive) | 12.8 µM (inactive) | 13.4 µM (inactive) | 6.71 µM (inactive) | 13.4 µM (inactive) | 14.8 µM (inactive)
C/N=c1\ss/c(=N\C(=S)N(C)C)n1C1CCCCC1 | – | > 31.6 µM (inactive) | > 31.6 µM (inactive) | – | > 31.6 µM (inactive) | > 10 µM (inactive) | > 31.6 µM (inactive) | > 31.6 µM (inactive) | > 100 µM (inactive) | > 31.6 µM (inactive) | > 31.6 µM (inactive) | > 31.6 µM (inactive) | > 31.6 µM (inactive) | > 31.6 µM (inactive) | > 31.6 µM (inactive) | – | > 10 µM (inactive) | > 31.6 µM (inactive) | > 10 µM (inactive) | > 31.6 µM (inactive)
COC(=O)c1c2c(cc3c1CC1(Cc4cc5c(cc4C1)CCCC5)C3)CCCC2 | > 100 µM (inactive) | > 100 µM (inactive) | > 100 µM (inactive) | – | > 100 µM (inactive) | 15.3 µM (inactive) | > 100 µM (inactive) | > 100 µM (inactive) | > 100 µM (inactive) | – | – | > 100 µM (inactive) | > 100 µM (inactive) | > 100 µM (inactive) | > 100 µM (inactive) | > 100 µM (inactive) | > 100 µM (inactive) | > 100 µM (inactive) | > 100 µM (inactive) | 25.8 µM (inactive)
Cc1cc(-c2cccc3ccccc23)c(C#N)c(=S)n1C1OC(CO)C(O)C(O)C1O (stereo not given) | > 100 µM (inactive) | > 100 µM (inactive) | > 100 µM (inactive) | – | > 100 µM (inactive) | > 100 µM (inactive) | – | – | > 100 µM (inactive) | > 100 µM (inactive) | > 100 µM (inactive) | > 100 µM (inactive) | 60.3 µM (inactive) | > 100 µM (inactive) | > 100 µM (inactive) | > 100 µM (inactive) | > 100 µM (inactive) | > 100 µM (inactive) | > 100 µM (inactive) | > 100 µM (inactive)
CCCCn1c(C)c2c(c1C)C(=O)N(CCN1CCN(c3ccccc3Cl)CC1)C2=O | 28.4 µM (inactive) | 35.6 µM (inactive) | 32.4 µM (inactive) | 36 µM (inactive) | 43.5 µM (inactive) | 18.6 µM (inactive) | 25.5 µM (inactive) | 36.5 µM (inactive) | 29 µM (inactive) | 35.5 µM (inactive) | 69.3 µM (inactive) | 28.6 µM (inactive) | 51.2 µM (inactive) | 30.6 µM (inactive) | 61.8 µM (inactive) | 32.4 µM (inactive) | 21.9 µM (inactive) | 21 µM (inactive) | > 10 µM (inactive) | –
CC1CN=C(Nc2ccc(F)cc2F)S1 (stereo not given) | > 100 µM (inactive) | 75 µM (inactive) | – | > 100 µM (inactive) | > 100 µM (inactive) | > 100 µM (inactive) | – | > 100 µM (inactive) | > 100 µM (inactive) | > 100 µM (inactive) | > 100 µM (inactive) | > 100 µM (inactive) | > 100 µM (inactive) | > 100 µM (inactive) | > 100 µM (inactive) | – | – | > 100 µM (inactive) | > 100 µM (inactive) | –
NNC(=O)/C(NC(=O)c1ccccc1)=C(\N)c1ccc(Cl)cc1 | – | > 100 µM (inactive) | > 100 µM (inactive) | – | > 100 µM (inactive) | > 100 µM (inactive) | 61.1 µM (inactive) | > 100 µM (inactive) | > 100 µM (inactive) | > 100 µM (inactive) | > 100 µM (inactive) | > 100 µM (inactive) | > 100 µM (inactive) | > 100 µM (inactive) | > 100 µM (inactive) | – | > 100 µM (inactive) | > 100 µM (inactive) | > 100 µM (inactive) | > 100 µM (inactive)
O=C(O)c1ccc(NC(NC(=O)C(C(F)(F)F)C(F)(F)F)(C(F)(F)F)C(F)(F)F)cc1 | > 100 µM (inactive) | > 100 µM (inactive) | – | – | > 100 µM (inactive) | > 100 µM (inactive) | – | > 100 µM (inactive) | – | – | > 100 µM (inactive) | > 100 µM (inactive) | – | > 100 µM (inactive) | > 100 µM (inactive) | > 100 µM (inactive) | > 100 µM (inactive) | – | > 100 µM (inactive) | > 100 µM (inactive)
CC(C)(c1ccc(OC#N)cc1)c1ccc(OC#N)cc1 | – | > 100 µM (inactive) | > 100 µM (inactive) | – | > 100 µM (inactive) | > 44.1 µM (inactive) | 23.2 µM (inactive) | > 68.5 µM (inactive) | > 100 µM (inactive) | > 58.7 µM (inactive) | > 100 µM (inactive) | > 100 µM (inactive) | > 100 µM (inactive) | > 100 µM (inactive) | > 100 µM (inactive) | – | > 100 µM (inactive) | > 100 µM (inactive) | > 100 µM (inactive) | > 87.9 µM (inactive)
Cc1ccc(OC(=O)N2C/C(=C\c3ccccc3)C(=O)/C(=C/c3ccccc3)C2)cc1 | 27.6 µM (inactive) | > 100 µM (inactive) | 23.5 µM (inactive) | > 100 µM (inactive) | 32.1 µM (inactive) | 2.13 µM (inactive) | 13 µM (inactive) | 9.25 µM (inactive) | 18.5 µM (inactive) | 53 µM (inactive) | 49.9 µM (inactive) | 40.6 µM (inactive) | 23.5 µM (inactive) | 10 µM (inactive) | 76 µM (inactive) | – | 8.79 µM (inactive) | > 76 µM (inactive) | 17.1 µM (inactive) | 20.1 µM (inactive)
C=CCOc1cccc(C2(O)c3ccccc3C3=NCCCN32)c1 (stereo not given) | 10.3 µM (inactive) | 3.77 µM (inactive) | 16.1 µM (inactive) | 41.2 µM (inactive) | 33.3 µM (inactive) | 10.9 µM (inactive) | 19.5 µM (inactive) | 15.6 µM (inactive) | 6.84 µM (inactive) | 16.8 µM (inactive) | 34.7 µM (inactive) | 16 µM (inactive) | 15.5 µM (inactive) | 14.5 µM (inactive) | 29.7 µM (inactive) | 13 µM (inactive) | 12.4 µM (inactive) | 19.9 µM (inactive) | 8.49 µM (inactive) | –
